Laboratory results taken from ChEMBL document CHEMBL3244002, “Activity-electroreduction relationship of antimicrobial metronidazole analogues” (J Med Chem, 1978).
≈ marks a conversion by molar mass, not a printed value.

Legend:
[1] = Effect on magnitude of electroreduction potential (Ep) of clostridial ferridoxin by alternating current polarographic technique; format: physicochemical
[2] = tested on: Trichomonas vaginalis; test: Antimicrobial activity against Trichomonas vaginalis ATCC 30001 assessed as growth inhibition after 48 hrs under anaerobic conditions by microscopic analysis; format: functional; conditions: ATCC 30001, 48 h
[3] = 1-Octanol-saturated McIlvaine buffer partition coefficient, log P of the compound at 80 uM at pH 6.01 by spectrophotometric analysis; format: physicochemical; conditions: 1-octanol/McIlvaine buffer
[4] = Decrease in current height for electroreduction of S-Fe bonding in clostridial ferridoxin assessed as alternating current reduction peak potential at 32 uM by polarographic technique; format: physicochemical
[5] = tested on: Clostridium pasteurianum; test: Antimicrobial activity against Clostridium pasteurianum ATCC 6013 assessed as growth inhibition after 24 hrs under anaerobic conditions by microscopic analysis; format: functional; conditions: ATCC 6013, 24 h

| Activity [1] | MIC [2] | logD at 80 µM [3] | Activity [4] | MIC [5] | SMILES |
| --- | --- | --- | --- | --- | --- |
| – | 0.098 µg/mL (≈ 0.573 µM) | -0.051 | – | 0.244 µg/mL (≈ 1.43 µM) | Cc1ncc([N+](=O)[O-])n1CCO [METRONIDAZOLE] |
| – | 10.9 µg/mL (≈ 51.6 µM) | -0.469 | – | 0.78 µg/mL (≈ 3.68 µM) | CC(=O)NCCn1c([N+](=O)[O-])cnc1C |
| – | 0.195 µg/mL (≈ 1.03 µM) | 0.879 | – | 0.39 µg/mL (≈ 2.06 µM) | Cc1ncc([N+](=O)[O-])n1CCCl |
| – | 0.098 µg/mL (≈ 0.46 µM) | 0.301 | – | 0.39 µg/mL (≈ 1.83 µM) | CC(=O)OCCn1c([N+](=O)[O-])cnc1C |

The next lines start with the compound.

| SMILES | Activity [1] | MIC [2] | logD at 80 µM [3] | Activity [4] | MIC [5] |
| --- | --- | --- | --- | --- | --- |
| Cc1ncc([N+](=O)[O-])n1CCSC(=S)N(C)C | Not Active | 0.195 µg/mL (≈ 0.711 µM) | 1.28 | 0.533 V | 0.683 µg/mL (≈ 2.49 µM) |
| Cc1ncc([N+](=O)[O-])n1CCS(=O)(=O)[O-].[Na+] | – | 6.25 µg/mL | -2.05 | – | 1.17 µg/mL |
| Cc1ncc([N+](=O)[O-])n1CCSc1ccc(Cl)cc1 | – | 12.5 µg/mL (≈ 42 µM) | 1.47 | – | 5.47 µg/mL (≈ 18.4 µM) |
| Cc1ncc([N+](=O)[O-])n1CCOC(=O)N(C)C | – | 0.195 µg/mL (≈ 0.805 µM) | 0.455 | – | 0.39 µg/mL (≈ 1.61 µM) |
| Cc1ncc([N+](=O)[O-])n1CCN=[N+]=[N-] | – | 0.341 µg/mL (≈ 1.74 µM) | 0.755 | – | 0.39 µg/mL (≈ 1.99 µM) |
